Data published in patent US9951055B2, “Thiazole-based inhibitors of scavenger receptor BI” (THE BROAD INSTITUTE, INC., priority 2012, dated 2018).

Experiments:
Plasma protein binding = format: in vitro ADME; details: human plasma; read-out: plasma protein binding, bound (converted)
SR-BI [1] = molecular target: T1, SR-BI (Mus musculus, UniProt Q61009); test: Cholesterol efflux assay; format: cell-based; parameters: expressed in transfected cells
T1 sequence (Q61009 1-509): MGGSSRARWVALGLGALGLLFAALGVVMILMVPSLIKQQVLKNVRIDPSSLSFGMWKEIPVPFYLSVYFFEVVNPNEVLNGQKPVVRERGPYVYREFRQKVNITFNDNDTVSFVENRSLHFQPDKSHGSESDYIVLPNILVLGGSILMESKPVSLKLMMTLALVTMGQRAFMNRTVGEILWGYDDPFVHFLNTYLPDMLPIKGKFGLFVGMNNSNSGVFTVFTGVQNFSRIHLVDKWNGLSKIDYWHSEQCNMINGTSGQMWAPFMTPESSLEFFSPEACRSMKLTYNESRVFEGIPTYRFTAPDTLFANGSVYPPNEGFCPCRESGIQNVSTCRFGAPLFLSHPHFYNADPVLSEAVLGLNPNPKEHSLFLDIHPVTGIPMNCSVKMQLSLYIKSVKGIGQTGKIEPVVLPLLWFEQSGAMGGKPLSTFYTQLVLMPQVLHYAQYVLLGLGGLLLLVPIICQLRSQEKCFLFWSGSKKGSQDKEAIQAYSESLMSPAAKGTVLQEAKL
Procedure: SR-BI also mediates bidirectional flux (e.g. efflux) of unesterified or ‘free’ cholesterol (FC) between cells and HDL or other acceptors. In vivo, the greatest SR-BI-mediated selective uptake occurs in the liver and steroidogenic organs. This assay is used to determine if the compounds alter the efflux of FC to HDL.
On Day 0, 50,000 cells per well were plated in 24-well plates. On the following day, the media was removed and [^3H]cholesterol in lipoprotein-deficient media was added. On Day 1, the medium was replaced with Ham's F12 medium supplemented with 10% bovine lipoprotein deficient serum with 1 μCi/ml [1,2-^3H]cholesterol (40-60 Ci/mmol). On Day 3, the cells were washed to remove serum and incubated in Ham's F12 plus 1% fatty acid-free BSA. On Day 4, the cells were washed and pretreated with compounds for 1 hour. Subsequently, the cells were incubated for an additional 2 hours with the same concentrations of small molecules and with unlabeled HDL (final HDL concentration of 100 μg protein/ml). The medium was collected to determine released cholesterol, and the cells were lysed. The amount of [^3H]cholesterol in the medium and cells was determined using liquid scintillation counting. Total cellular [^3H]cholesterol was calculated as the sum of the radioactivity in the efflux medium plus the radioactivity in the cells and was used to calculate the [^3H]cholesterol efflux (percent of total [^3H]cholesterol released into the medium).

SR-BI [2] = molecular target: T1, SR-BI; test: HDL binding assay (Alexa 488 HDL); format: cell-based; parameters: expressed in transfected cells; details: Alexa-488 labeled HDL particles
Procedure: HDL binding was assessed using Alexa Fluor 488-labeled HDL particles. For this assay, the Alexa 488 dye was covalently bound to apolipoprotein components of the HDL particle via primary amines; thus, no transfer of the fluorophore to cell membranes occurs. In this manner, direct binding of the HDL particles to SR-BI can be measured. As a positive control, BLT-1, which is known to increase binding of HDL to SR-BI, was used at 1 μM (12). It is possible that a compound can reduce binding of HDL to the receptor, and this would lead to a decrease in signal. This assay is used to characterize the mechanism of action of a particular compound; therefore, any outcome in the assay is acceptable. Data were normalized against DMSO and the positive control (1 μM BLT-1) in Genedata Assay Analyzer.

COCC(=O)N1CCc2cc(-c3csc(NC(=O)c4cc(OC)cc(OC)c4)n3)ccc21 [Compound 137, 3,5-Dimethoxy-N-(4-(1-(2-methoxyacetyl)indolin-5-yl)thiazol-2-yl)benzamide]
fraction unbound (Plasma protein binding): 0.065
reduction of efflux of free cholesterol from cells (SR-BI [1]; during the course of the assay): up to 50%
inhibition of efflux of cholesterol (SR-BI [1]; listed as Probe 278): Inhibits efflux of cholesterol
inhibition of efflux of cholesterol (SR-BI [1]; listed as compound of Formula (II)): inhibit efflux of cholesterol
binding of HDL to SR-BI (SR-BI [2]): increases binding of HDL to the receptor
